{"source": "BindingDB's records for doi:10.1016/S0960-894X(97)00417-4", "about": "(1997)"}
{"assay": "Inhibition of [3H]pentazocine binding to Sigma opioid receptor type 1", "units": {"Ki": "nM"}}
{"smiles": "CC1(C)C2CC[C@]1(C)CN(C1CCCCC1)C2", "note": "[(S)-3-Cyclohexyl-1,8,8-trimethyl-3-aza-bicyclo[3.2.1]octane]", "Ki": 3}
{"smiles": "CC1(C)C2CC[C@]1(C)CN(CC1CCCCC1)C2", "note": "[(S)-3-Cyclohexylmethyl-1,8,8-trimethyl-3-aza-bicyclo[3.2.1]octane]", "Ki": 1.3}
{"smiles": "C=CCN1CC[C@@]2(C)c3cc(O)ccc3C[C@H]1[C@H]2C", "note": "[(1S,9S,13S)-10-allyl-1,13-dimethyl-10-azatricyclo[7.3.1.0~2,7~]trideca-2,4,6-trien-4-ol]", "Ki": 157}
{"smiles": "CC1(C)C2CC[C@]1(C)CN(CCC1CCCCCC1)C2", "note": "[(S)-3-(2-Cycloheptyl-ethyl)-1,8,8-trimethyl-3-aza-bicyclo[3.2.1]octane]", "Ki": 2.9}
{"smiles": "CC1(C)C2CC[C@]1(C)CN(CCC1CCCCC1)C2", "note": "[(S)-3-(2-Cyclohexyl-ethyl)-1,8,8-trimethyl-3-aza-bicyclo[3.2.1]octane]", "Ki": 2.2}
{"smiles": "CC1(C)C2CC[C@]1(C)CN(CCC1CCCC1)C2", "note": "[(S)-3-(2-Cyclopentyl-ethyl)-1,8,8-trimethyl-3-aza-bicyclo[3.2.1]octane]", "Ki": 1.7}
{"smiles": "CC1(C)C2CC[C@]1(C)CN(CCCCC1CCCCC1)C2", "note": "[(S)-3-(4-Cyclohexyl-butyl)-1,8,8-trimethyl-3-aza-bicyclo[3.2.1]octane]", "Ki": 1.2}
{"smiles": "CC1(C)C2CC[C@]1(C)CN(CCCC1CCCCC1)C2", "note": "[(S)-3-(3-Cyclohexyl-propyl)-1,8,8-trimethyl-3-aza-bicyclo[3.2.1]octane]", "Ki": 2.5}
{"smiles": "CC1(C)C2CC[C@@]1(C)CN(CCC1CCCCC1)C2", "note": "[(R)-3-(2-Cyclohexyl-ethyl)-1,8,8-trimethyl-3-aza-bicyclo[3.2.1]octane]", "Ki": 1.4}
{"smiles": "CC1(C)C2CC[C@@]1(C)CN(CC1CCCCC1)C2", "note": "[(R)-3-Cyclohexylmethyl-1,8,8-trimethyl-3-aza-bicyclo[3.2.1]octane]", "Ki": 1.1}
{"smiles": "CC1(C)C2CC[C@]1(C)CN(CCC1C3CC4CC(C3)CC1C4)C2", "note": "(stereo partly drawn) [(S)-3-(2-Adamantan-2-yl-ethyl)-1,8,8-trimethyl-3-aza-bicyclo[3.2.1]octane]", "Ki": 4.3}
{"smiles": "CC1(C)C2CC[C@]1(C)CN(CCC1CCCCCCC1)C2", "note": "[(S)-3-(2-Cyclooctyl-ethyl)-1,8,8-trimethyl-3-aza-bicyclo[3.2.1]octane]", "Ki": 2.9}
